# Earlier results in US20090196889A1, “CONTROLLED ABSORPTION OF STATINS IN THE INTESTINE” (DEXCEL PHARMA TECHNOLOGIES LTD., priority 2004, published 2009).
# Experiments:
# [1] = test system: plasma proteins, primarily albumin; settings: simvastatin and its active acid forms
# [2] = molecular target: T1, HMG-CoA reductase (Homo sapiens, UniProt P04035); settings: relative to the beta-hydroxy acid form considered as the drug
# T1 sequence (P04035 1-888): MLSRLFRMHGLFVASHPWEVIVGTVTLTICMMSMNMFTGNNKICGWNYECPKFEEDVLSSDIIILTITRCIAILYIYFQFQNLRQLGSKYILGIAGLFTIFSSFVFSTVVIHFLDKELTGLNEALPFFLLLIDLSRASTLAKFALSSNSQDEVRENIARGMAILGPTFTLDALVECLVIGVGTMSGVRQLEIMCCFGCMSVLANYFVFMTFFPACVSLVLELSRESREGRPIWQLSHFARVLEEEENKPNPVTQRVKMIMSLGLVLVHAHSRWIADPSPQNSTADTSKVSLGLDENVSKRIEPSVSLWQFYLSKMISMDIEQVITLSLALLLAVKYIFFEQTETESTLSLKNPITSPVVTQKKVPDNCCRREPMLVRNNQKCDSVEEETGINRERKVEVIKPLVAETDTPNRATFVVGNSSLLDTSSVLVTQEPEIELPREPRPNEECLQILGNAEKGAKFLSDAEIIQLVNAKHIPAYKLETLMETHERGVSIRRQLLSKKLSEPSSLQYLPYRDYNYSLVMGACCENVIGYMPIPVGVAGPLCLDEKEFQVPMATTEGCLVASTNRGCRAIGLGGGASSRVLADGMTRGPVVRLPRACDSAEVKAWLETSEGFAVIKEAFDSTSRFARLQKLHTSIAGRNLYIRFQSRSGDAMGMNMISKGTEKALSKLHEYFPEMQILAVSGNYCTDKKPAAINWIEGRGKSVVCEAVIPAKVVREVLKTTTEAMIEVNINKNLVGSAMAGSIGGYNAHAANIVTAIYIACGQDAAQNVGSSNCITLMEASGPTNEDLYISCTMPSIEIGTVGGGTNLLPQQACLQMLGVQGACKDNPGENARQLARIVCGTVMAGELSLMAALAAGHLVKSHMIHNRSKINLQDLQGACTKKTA
"bound to plasma proteins, primarily to albumin [1]",HMG-CoA reductase activity retained [2],Structure (SMILES)
more than 95%,,CCC(C)(C)C(=O)O[C@H]1C[C@@H](C)C=C2C=C[C@H](C)[C@H](CC[C@@H]3C[C@@H](O)CC(=O)O3)[C@H]21 [simvastatin]
,approximately 40%,CCC(C)(C)C(=O)OC1CC(CO)C=C2C=CC(C)C(CCC3CC(O)CC(=O)O3)C21 (stereo not drawn) [6-beta-hydroxymethyl]
,~50%,CCC(C)(C)C(=O)OC1CC(C)(O)C=C2C=CC(C)C(CCC3CC(O)CC(=O)O3)C21 (stereo not drawn) [6-beta-hydroxy simvastatin]
